Measurements: patent publication US20230399312A1, “SUBSTITUTED PYRIMIDINES AND METHODS OF USE” (THERAVANCE BIOPHARMA R&D IP, LLC, priority 2020, published 2023)

How the values were obtained:
[1] = target: T1, recombinant human ALK5 (TGF-βR1) protein (Homo sapiens, UniProt P36897); test: Biochemical ALK5 (TGF-βR1) assay to measure pKi (LANCE Ultra ULight kinase assay); details: apparent pKi, converted from pIC50 by Cheng-Prusoff
T1 construct: purchased Life Technologies PR9075A
T1 sequence (P36897 34-503): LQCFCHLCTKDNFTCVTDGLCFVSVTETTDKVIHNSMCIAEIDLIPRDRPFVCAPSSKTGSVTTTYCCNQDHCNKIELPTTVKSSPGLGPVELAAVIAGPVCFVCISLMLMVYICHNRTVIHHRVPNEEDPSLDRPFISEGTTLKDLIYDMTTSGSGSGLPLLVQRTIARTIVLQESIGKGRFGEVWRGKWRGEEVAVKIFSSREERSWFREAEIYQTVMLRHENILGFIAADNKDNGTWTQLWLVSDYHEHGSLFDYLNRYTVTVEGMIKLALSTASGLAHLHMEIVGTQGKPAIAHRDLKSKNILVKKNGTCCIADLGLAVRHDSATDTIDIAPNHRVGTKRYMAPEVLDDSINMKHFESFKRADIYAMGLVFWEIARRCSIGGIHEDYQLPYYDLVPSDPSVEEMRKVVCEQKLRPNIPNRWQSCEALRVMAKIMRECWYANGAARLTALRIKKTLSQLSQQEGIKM
Method in brief: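 Dose-response series of each compound were preincubated with the kinase for 60 minutes at room temperature. Phosphorylation proceeded for 60 minutes at 37 °C after ATP addition, was quenched with EDTA, and was detected with a europium anti-phospho-Thr1342 antibody by TR-FRET; pKi was calculated from pIC50.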

[2] = test system: TGF-β-stimulated SMAD3 phosphorylation in BEAS-2B cells; test: Cellular ALK5 potency assay, inhibition of TGF-β stimulated pSMAD3 formation in BEAS-2B cells; format: cell-based; details: Homo sapiens, pSMAD3, TGF-β 10 ng/mL, read-out: BEAS2B pIC50 (converted)
Method in brief: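 BEAS-2B cells, HBSS/25 mM HEPES/1% BSA buffer; cpd 1 h, 37 °C; TGF-β 10 ng/mL final, 30 min; lysis, AlphaLISA pSMAD3 read next day. pIC50 vs stimulated no-compound baseline.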

Ki [1]	SMILES	IC50 [2]
0.0398 to 0.316 nM	Cc1cccc(-c2nccc(Nc3ccnc(Nc4ccc(N5CCC(CN)CC5)cc4)n3)n2)n1 [Compound 302, N2-[4-[4-(aminomethyl)-1-piperidyl]phenyl]-N4-[2-(6-methyl-2-pyridyl)pyrimidin-4-yl]pyrimidine-2,4-diamine]	25.1 to 158 nM
0.0398 to 0.316 nM	Cc1cccc(-c2nccc(Nc3ccnc(Nc4ccc(N5CCCC(C(=O)OC6CCNC6)C5)cc4)n3)n2)n1 (stereo not drawn) [Compound 11, pyrrolidin-3-yl 1-[4-[[4-[[2-(6-methyl-2-pyridyl)pyrimidin-4-yl]amino]pyrimidin-2-yl]amino]phenyl]piperidine-3-carboxylate]	200 to 1260 nM
≤ 0.0316 nM	Cc1cccc(-c2nccc(Nc3ccnc(Nc4nc(C(=O)N[C@@H]5CCNC5)cs4)n3)n2)n1 [Compound 404, 2-[[4-[[2-(6-methyl-2-pyridyl)pyrimidin-4-yl]amino]pyrimidin-2-yl]amino]-N-[(3R)-pyrrolidin-3-yl]thiazole-4-carboxamide]	25.1 to 158 nM
0.0398 to 0.316 nM	Fc1cc(F)c(-c2ncc(C3CC3)c(Nc3ccnc(Nc4ccc(N5CCNCC5)cc4)n3)n2)cc1Cl [Compound 540, N4-[2-(5-chloro-2,4-difluoro-phenyl)-5-cyclopropyl-pyrimidin-4-yl]-N2-(4-piperazin-1-ylphenyl)pyrimidine-2,4-diamine]	1580 to 10000 nM
0.0398 to 0.316 nM	Cc1cccc(-c2nccc(Nc3ccnc(Nc4ccc(F)c(CO)c4)n3)n2)n1 [Compound 294, [2-fluoro-5-[[4-[[2-(6-methyl-2-pyridyl)pyrimidin-4-yl]amino]pyrimidin-2-yl]amino]phenyl]methanol]	≤ 20 nM
0.0398 to 0.316 nM	Cc1cccc(-c2nccc(Nc3ccnc(Nc4ccc(N5CCN(Cc6ccccn6)CC5)cc4)n3)n2)n1 [Compound 136, N4-[2-(6-methyl-2-pyridyl)pyrimidin-4-yl]-N2-[4-[4-(2-pyridylmethyl)piperazin-1-yl]phenyl]pyrimidine-2,4-diamine]	25.1 to 158 nM
0.0398 to 0.316 nM	Cc1cccc(-c2nccc(Nc3ccnc(Nc4ccc(C5CCNC5)cc4)n3)n2)n1 (stereo not drawn) [Compound 231, N4-[2-(6-methyl-2-pyridyl)pyrimidin-4-yl]-N2-(4-pyrrolidin-3-ylphenyl)pyrimidine-2,4-diamine]	25.1 to 158 nM
0.0398 to 0.316 nM	CCN1CCN(c2ccc(Nc3nccc(Nc4ccnc(-c5cccc(C)n5)n4)n3)cc2)CC1 [Compound 80, N2-[4-(4-ethylpiperazin-1-yl)phenyl]-N4-[2-(6-methyl-2-pyridyl)pyrimidin-4-yl]pyrimidine-2,4-diamine]	25.1 to 158 nM
≤ 0.0316 nM	Cc1cccc(-c2nccc(Nc3ccnc(Nc4nc(C(=O)NCC5CNC5)cs4)n3)n2)n1 [Compound 42, N-(azetidin-3-ylmethyl)-2-[[4-[[2-(6-methyl-2-pyridyl)pyrimidin-4-yl]amino]pyrimidin-2-yl]amino]thiazole-4-carboxamide]	25.1 to 158 nM
0.0398 to 0.316 nM	CC[C@@H](C)OC(=O)Cc1cc(Nc2nccc(Nc3ccnc(-c4cccc(C)n4)n3)n2)ccc1N1CCNCC1 [Compound 13, (R)-sec-butyl 2-(5-((4-((2-(6-methylpyridin-2-yl)pyrimidin-4-yl)amino)pyrimidin-2-yl)amino)-2-(piperazin-1-yl)phenyl)acetate]	25.1 to 158 nM
0.0398 to 0.316 nM	Cc1cccc(-c2nccc(Nc3ccnc(Nc4ccc5c(c4)CC(N)C5)n3)n2)n1 (stereo not drawn) [Compound 524, N2-(2-aminoindan-5-yl)-N4-[2-(6-methyl-2-pyridyl)pyrimidin-4-yl]pyrimidine-2,4-diamine]	25.1 to 158 nM
0.398 to 3.16 nM	Cc1cccc(-c2nccc(Nc3ccnc(Nc4ccc(-c5c(C)noc5C)cc4)n3)n2)n1 [Compound 469, N2-[4-(3,5-dimethylisoxazol-4-yl)phenyl]-N4-[2-(6-methyl-2-pyridyl)pyrimidin-4-yl]pyrimidine-2,4-diamine]	25.1 to 158 nM
0.0398 to 0.316 nM	Cc1cccc(-c2nccc(Nc3ccnc(Nc4ccc(C(=O)OC[C@H]5CNCCO5)nc4)n3)n2)n1 [Compound 605, [(2R)-morpholin-2-yl]methyl 5-[[4-[[2-(6-methyl-2-pyridyl)pyrimidin-4-yl]amino]pyrimidin-2-yl]amino]pyridine-2-carboxylate]	200 to 1260 nM
0.398 to 3.16 nM	COC(=O)c1cnc(-c2cccc(C)n2)nc1Nc1ccnc(Nc2ccc(N)cc2)n1 [Compound 437, methyl 4-[[2-(4-aminoanilino)pyrimidin-4-yl]amino]-2-(6-methyl-2-pyridyl)pyrimidine-5-carboxylate]	25.1 to 158 nM
0.398 to 3.16 nM	COC(=O)C1CN(CCNc2ccc(Nc3nccc(Nc4ccnc(-c5cccc(C)n5)n4)n3)cc2)CCN1 (stereo not drawn) [Compound 369, methyl 4-[2-[4-[[4-[[2-(6-methyl-2-pyridyl)pyrimidin-4-yl]amino]pyrimidin-2-yl]amino]anilino]ethyl] piperazine-2-carboxylate]	25.1 to 158 nM
0.0398 to 0.316 nM	Cc1cccc(-c2nccc(Nc3ccnc(Nc4ccc(N5CCNCC5C)cc4)n3)n2)n1 (racemic) [Compound 216, N4-[2-(6-methyl-2-pyridyl)pyrimidin-4-yl]-N2-[4-[rac-(2S)-2-methylpiperazin-1-yl]phenyl]pyrimidine-2,4-diamine]	25.1 to 158 nM
≤ 0.0316 nM	Cc1cccc(-c2nccc(Nc3ccnc(Nc4cccc(NC(=O)CC5CNC5)c4)n3)n2)n1 [Compound 385, 2-(azetidin-3-yl)-N-[3-[[4-[[2-(6-methyl-2-pyridyl)pyrimidin-4-yl]amino]pyrimidin-2-yl]amino]phenyl]acetamide]	25.1 to 158 nM
0.0398 to 0.316 nM	Cc1cccc(-c2nccc(Nc3ccnc(Nc4ccc(S(=O)(=O)N5CCNCC5)cc4)n3)n2)n1 [Compound 21, N4-[2-(6-methyl-2-pyridyl)pyrimidin-4-yl]-N2-(4-piperazin-1-ylsulfonylphenyl)pyrimidine-2,4-diamine]	25.1 to 158 nM
0.398 to 3.16 nM	Cc1cccc(-c2nccc(Nc3ccnc(Nc4ccc(Cc5ncco5)cc4)n3)n2)n1 [Compound 485, N4-[2-(6-methyl-2-pyridyl)pyrimidin-4-yl]-N2-[4-(oxazol-2-ylmethyl)phenyl]pyrimidine-2,4-diamine]	25.1 to 158 nM
0.0398 to 0.316 nM	Cc1cccc(-c2nccc(Nc3ccnc(Nc4csc(C(=O)OCC5CNC5)c4)n3)n2)n1 [Compound 96, azetidin-3-ylmethyl 4-((4-((2-(6-methylpyridin-2-yl)pyrimidin-4-yl)amino)pyrimidin-2-yl)amino)thiophene-2-carboxylate]	25.1 to 158 nM
0.0398 to 0.316 nM	Cc1cccc(-c2nc(Nc3ccnc(Nc4ccc(NC(=O)CC5CNC5)cc4)n3)c3cccn3n2)n1 [Compound 1029, 2-(azetidin-3-yl)-N-[4-[[4-[[2-(6-methyl-2-pyridyl)pyrrolo[2,1-f][1,2,4]triazin-4-yl]amino]pyrimidin-2-yl]amino]phenyl]acetamide]	25.1 to 158 nM
0.0398 to 0.316 nM	Cc1cccc(-c2nccc(Nc3ccnc(Nc4ccc(N(C)C5CCNC5)cc4)n3)n2)n1 (racemic) [Compound 274, N4-[2-(6-methyl-2-pyridyl)pyrimidin-4-yl]-N2-[4-[methyl-[rac-(3R)-pyrrolidin-3-yl]amino]phenyl]pyrimidine-2,4-diamine]	25.1 to 158 nM
0.0398 to 0.316 nM	Cc1cccc(-c2nccc(Nc3ccnc(Nc4cccc(S(=O)(=O)NCCN)c4)n3)n2)n1 [Compound 430, N-(2-aminoethyl)-3-[[4-[[2-(6-methyl-2-pyridyl)pyrimidin-4-yl]amino]pyrimidin-2-yl]amino]benzenesulfonamide]	25.1 to 158 nM
0.0398 to 0.316 nM	Cc1cccc(-c2nccc(Nc3ccnc(Nc4ccc(NC(=O)C5(O)CNC5)cc4)n3)n2)n1 [Compound 180, 3-hydroxy-N-[4-[[4-[[2-(6-methyl-2-pyridyl)pyrimidin-4-yl]amino]pyrimidin-2-yl]amino]phenyl]azetidine-3-carboxamide]	25.1 to 158 nM
0.0398 to 0.316 nM	Cc1cccc(-c2nccc(Nc3ccnc(Nc4ccc(C(=O)OCC5CNC5)nc4)n3)n2)n1 [Compound 545, azetidin-3-ylmethyl 5-((4-((2-(6-methylpyridin-2-yl)pyrimidin-4-yl)amino)pyrimidin-2-yl)amino)picolinate]	25.1 to 158 nM
0.398 to 3.16 nM	Cc1cccc(-c2nc(CC(=O)NCCO)cc(Nc3ccnc(Nc4ccc(N5CCNCC5)cc4)n3)n2)n1 [Compound 498, N-(2-hydroxyethyl)-2-[2-(6-methyl-2-pyridyl)-6-[[2-(4-piperazin-1-ylanilino)pyrimidin-4-yl]amino]pyrimidin-4-yl]acetamide]	200 to 1260 nM
0.0398 to 0.316 nM	Cc1cccc(-c2nccc(Nc3ccnc(Nc4ccc(C(=O)OCC5CCNCC5)nc4)n3)n2)n1 [Compound 587, 4-piperidylmethyl 5-[[4-[[2-(6-methyl-2-pyridyl)pyrimidin-4-yl]amino]pyrimidin-2-yl]amino]pyridine-2-carboxylate]	25.1 to 158 nM
